# Reference: publication PMC7238232, “Acamprosate Is a Substrate of the Human Organic Anion Transporter (OAT) 1 without OAT3 Inhibitory Properties: Implications for Renal Acamprosate Secretion and Drug–Drug Interactions” (Pharmaceutics, 2020)
# Marks after values point to notes of the source that are not given here.
# Assays:
# [1] = system: TAUT; settings: Caco-2 cells, preliminary data; cited from earlier work
# [2] = system: EAAT1; settings: Caco-2 cells, preliminary data; cited from earlier work
# [3] = target: T1, OAT1 (Homo sapiens, UniProt Q4U2R8); test: Acamprosate intracellular uptake and inhibition of uptake in HEK293-Flp-In OAT1 cells (LC/MS-MS); format: cell-based; set-up: expressed in transfected cells; host or cells: HEK293-Flp-In
# T1 sequence (Q4U2R8 1-563): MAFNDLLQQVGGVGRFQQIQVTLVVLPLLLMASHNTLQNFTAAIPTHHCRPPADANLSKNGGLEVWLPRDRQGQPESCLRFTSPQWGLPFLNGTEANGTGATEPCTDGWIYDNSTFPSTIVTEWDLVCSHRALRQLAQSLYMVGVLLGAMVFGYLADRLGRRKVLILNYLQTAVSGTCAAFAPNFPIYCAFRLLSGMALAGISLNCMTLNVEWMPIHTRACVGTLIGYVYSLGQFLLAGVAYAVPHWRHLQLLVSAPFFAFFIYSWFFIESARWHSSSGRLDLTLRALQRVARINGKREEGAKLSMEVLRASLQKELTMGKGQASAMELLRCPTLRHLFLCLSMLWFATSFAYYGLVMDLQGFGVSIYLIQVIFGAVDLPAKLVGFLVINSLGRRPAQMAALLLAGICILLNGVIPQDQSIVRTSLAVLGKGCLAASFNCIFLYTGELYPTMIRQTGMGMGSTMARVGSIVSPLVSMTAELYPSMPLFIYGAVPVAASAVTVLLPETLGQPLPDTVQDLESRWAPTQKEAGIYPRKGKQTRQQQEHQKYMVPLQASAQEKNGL
# Source text: The obtained intracellular amounts (pmol) were normalized to the assay time (min) and cell surface area (cm^2) or protein amount (mg protein) to obtain a term hereafter referred to as uptake rate. The uptake rate of acamprosate as a function of concentration was fitted to a Michaelis–Menten type equation which includes a saturable and a non-saturable uptake component, (1) V=Vmax · [S]/Km +[S]+P · [S] where V is the substrate uptake rate; Vmax is the maximal uptake rate; P is a constant related to non-saturable apparent uptake, i.e., factors such as passive diffusion, unspecific binding and residual compound present after washing steps, and [S] is the substrate concentration (µM). […] Assuming competitive interaction, equilibrium dissociation constants, Ki, were calculated from the IC50 value for each substrate/inhibitor pair, at substrate Km, using the Cheng–Prusoff equation [24].
# [4] = system: ASBT; settings: Caco-2 cells, preliminary data; cited from earlier work
# [5] = system: HEK293-Flp-In mock cells; test: CellTiter-Glo cell viability assay, mock cells; settings: up to 3300 µM acamprosate; 3 h
# [6] = Physicochemical properties; settings: assay pH 7.4
# [7] = system: HEK293-Flp-In OAT1 cells; test: CellTiter-Glo cell viability assay, OAT1 transfected cells; settings: up to 3300 µM acamprosate; 3 h
# [8] = target: T1, OAT1; test: Drug-drug interaction (DDI) index calculation, OAT1; settings: for DDI Index, PAH: acamprosate
# Source text: Input values for Cmax,u or C0,u calculated from clinical studies are listed in Appendix B, Table A1.
# [9] = 200 µM acamprosate, 10 min, Lab. 1
structure (smiles),measurement,setting,value
"CC(=O)NCCCS(=O)(=O)O [acamprosate, acetylhomotaurinate]",inhibition of substrate transport via TAUT,[1],did not inhibit
same,inhibition of substrate transport via EAAT1,[2],did not inhibit
same,acamprosate uptake in OAT1 expressing cells compared to mock and OAT3 expressing cells,[3]; [9],statistically significantly higher
same,acamprosate uptake rate in OAT1 cells relative to mock-transfected cells,[3]; [9],approximately 20 fold
same,"P, non-saturable apparent uptake constant","[3]; HEK293-Flp-In OAT1 cells, Lab. 1",0.35 ± 0.04 µL∙mg protein^−1∙min^−1
same,uptake by OAT1 as compared to OAT3,[3]; criterion of relatively OAT1-specific substrate,at least 5 ×
same,inhibition of substrate transport via ASBT,[4],did not inhibit
same,decrease in cell viability,[5],≤ 10%
same,ionized at the assay pH,[6],> 99%
same,decrease in cell viability,[7],≤ 10%
same,"DDI Index, PAH","[8]; IV bolus, 333 mg",0.12–0.53 *
same,"DDI Index, PAH","[8]; IV bolus, 666 mg",0.17–0.75 *
same,"DDI Index, PAH","[8]; IV bolus, 710 mg",0.19–0.80 *
same,"DDI Index, PAH","[8]; IV bolus, 1420 mg",0.40–1.69 *
same,"DDI Index, PAH","[8]; IV bolus, 2130 mg",0.62–2.68 *
same,"DDI Index, PAH","[8]; oral solution, 333 mg",0.00–0.01
same,"DDI Index, PAH","[8]; oral solution, 666 mg",0.00–0.01
same,"DDI Index, PAH","[8]; oral solution, 1332 mg",0.00–0.02
same,"DDI Index, PAH","[8]; oral solution, 2664 mg",0.01–0.03
same,"DDI Index, PAH","[8]; oral tablet, 666 mg",0.00–0.00
same,"DDI Index, PAH","[8]; oral tablet, 1332 mg",0.001–0.01
same,"DDI index, substrate PAH","[8]; oral administration of inhibitor, range over doses",0.001–0.008
